Laboratory results from ChEMBL document CHEMBL3991601, “The target landscape of clinical kinase drugs” (Science, 2017).
Where a name gives a salt, the structure may show the parent alone. Activity calls are given as the source filed them.

What was measured:
[1] = target: DnaJ homolog subfamily A member 1 (Homo sapiens, UniProt P31689)
[2] = target: T1, Serine/threonine-protein kinase Nek9 (Homo sapiens, UniProt Q8TD19)
T1 sequence (Q8TD19 whole entry): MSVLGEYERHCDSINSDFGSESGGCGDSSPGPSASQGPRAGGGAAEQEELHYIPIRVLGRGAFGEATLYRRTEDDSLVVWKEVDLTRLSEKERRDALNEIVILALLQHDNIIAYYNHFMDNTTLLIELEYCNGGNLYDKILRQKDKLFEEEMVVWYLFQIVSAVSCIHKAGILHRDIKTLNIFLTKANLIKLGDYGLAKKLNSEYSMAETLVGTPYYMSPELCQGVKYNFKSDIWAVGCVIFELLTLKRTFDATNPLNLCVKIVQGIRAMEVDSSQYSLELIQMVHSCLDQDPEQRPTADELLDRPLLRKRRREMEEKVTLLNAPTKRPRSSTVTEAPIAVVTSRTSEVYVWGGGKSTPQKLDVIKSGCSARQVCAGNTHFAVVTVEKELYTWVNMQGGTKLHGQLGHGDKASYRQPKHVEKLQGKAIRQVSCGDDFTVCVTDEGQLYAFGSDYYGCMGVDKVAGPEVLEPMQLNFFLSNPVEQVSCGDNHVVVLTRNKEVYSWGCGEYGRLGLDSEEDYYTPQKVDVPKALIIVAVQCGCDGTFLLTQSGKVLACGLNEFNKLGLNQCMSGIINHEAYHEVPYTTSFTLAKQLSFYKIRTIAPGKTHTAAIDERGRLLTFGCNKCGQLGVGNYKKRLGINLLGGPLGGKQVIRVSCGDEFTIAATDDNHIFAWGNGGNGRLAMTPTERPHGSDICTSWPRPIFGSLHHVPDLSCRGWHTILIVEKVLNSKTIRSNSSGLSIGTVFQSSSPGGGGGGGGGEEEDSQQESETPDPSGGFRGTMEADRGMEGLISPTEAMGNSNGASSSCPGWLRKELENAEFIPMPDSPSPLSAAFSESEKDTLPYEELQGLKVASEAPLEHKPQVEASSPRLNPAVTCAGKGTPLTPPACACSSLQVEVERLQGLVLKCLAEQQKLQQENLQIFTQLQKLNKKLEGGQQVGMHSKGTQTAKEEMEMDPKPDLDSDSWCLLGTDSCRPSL

[3] = target: Citron Rho-interacting kinase (Homo sapiens, UniProt O14578)
[4] = target: Guanine nucleotide-binding protein G(i) subunit alpha-2 (Homo sapiens, UniProt P04899)
[5] = target: T2, Adenine phosphoribosyltransferase (Homo sapiens, UniProt P07741)
T2 sequence (P07741 whole entry): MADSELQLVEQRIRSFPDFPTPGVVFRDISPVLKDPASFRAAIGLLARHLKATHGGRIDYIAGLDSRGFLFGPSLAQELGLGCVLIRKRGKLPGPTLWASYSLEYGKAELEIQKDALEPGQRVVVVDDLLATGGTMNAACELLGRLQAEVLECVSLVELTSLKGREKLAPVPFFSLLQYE

Ephrin type-A receptor 2 = Ephrin type-A receptor 2 (Homo sapiens, UniProt P29317)
[6] = target: T3, Succinate--CoA ligase [ADP-forming] subunit beta, mitochondrial (Homo sapiens, UniProt Q9P2R7)
T3 sequence (Q9P2R7 whole entry): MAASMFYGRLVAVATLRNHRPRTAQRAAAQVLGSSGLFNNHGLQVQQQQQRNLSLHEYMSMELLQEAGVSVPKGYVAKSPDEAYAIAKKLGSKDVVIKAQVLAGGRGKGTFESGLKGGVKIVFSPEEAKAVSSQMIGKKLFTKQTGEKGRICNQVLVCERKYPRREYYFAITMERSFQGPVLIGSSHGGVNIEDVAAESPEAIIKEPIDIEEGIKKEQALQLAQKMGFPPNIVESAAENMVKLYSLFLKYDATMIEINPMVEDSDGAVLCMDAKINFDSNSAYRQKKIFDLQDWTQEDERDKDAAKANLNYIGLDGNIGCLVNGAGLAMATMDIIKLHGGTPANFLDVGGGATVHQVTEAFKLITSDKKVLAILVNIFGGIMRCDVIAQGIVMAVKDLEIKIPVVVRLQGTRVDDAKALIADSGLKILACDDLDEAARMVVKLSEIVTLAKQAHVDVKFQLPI

LIM domain kinase 2 = LIM domain kinase 2 (Homo sapiens, UniProt P53671)
[7] = target: T4, EKC/KEOPS complex subunit TP53RK (Homo sapiens, UniProt Q96S44)
T4 sequence (Q96S44 whole entry): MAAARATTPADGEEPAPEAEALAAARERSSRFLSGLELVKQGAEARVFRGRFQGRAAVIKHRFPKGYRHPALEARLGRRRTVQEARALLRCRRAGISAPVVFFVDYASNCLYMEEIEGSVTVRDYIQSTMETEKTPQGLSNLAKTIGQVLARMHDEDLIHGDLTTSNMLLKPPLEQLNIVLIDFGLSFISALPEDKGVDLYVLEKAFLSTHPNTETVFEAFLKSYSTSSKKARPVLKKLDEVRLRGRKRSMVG

Actin-related protein 2 = Actin-related protein 2 (Homo sapiens, UniProt P61160)
Obg-like ATPase 1 = Obg-like ATPase 1 (Homo sapiens, UniProt Q9NTK5)
Also: in the data inactive means no Kd found up to 30 µM.

Obg-like ATPase 1, sequence (Q9NTK5 whole entry, looked up): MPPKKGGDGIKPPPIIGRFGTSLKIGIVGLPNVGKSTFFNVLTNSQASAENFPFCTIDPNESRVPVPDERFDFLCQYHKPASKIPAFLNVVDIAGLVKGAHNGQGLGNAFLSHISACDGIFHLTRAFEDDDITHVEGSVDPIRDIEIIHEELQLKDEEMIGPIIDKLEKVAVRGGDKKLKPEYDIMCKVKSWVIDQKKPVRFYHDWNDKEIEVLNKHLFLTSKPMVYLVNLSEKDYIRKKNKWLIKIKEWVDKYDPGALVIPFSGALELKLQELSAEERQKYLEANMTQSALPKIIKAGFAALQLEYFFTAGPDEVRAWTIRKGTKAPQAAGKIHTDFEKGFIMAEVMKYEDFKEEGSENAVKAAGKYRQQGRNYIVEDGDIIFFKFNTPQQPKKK
Guanine nucleotide-binding protein G(i) subunit alpha-2, sequence (P04899 whole entry): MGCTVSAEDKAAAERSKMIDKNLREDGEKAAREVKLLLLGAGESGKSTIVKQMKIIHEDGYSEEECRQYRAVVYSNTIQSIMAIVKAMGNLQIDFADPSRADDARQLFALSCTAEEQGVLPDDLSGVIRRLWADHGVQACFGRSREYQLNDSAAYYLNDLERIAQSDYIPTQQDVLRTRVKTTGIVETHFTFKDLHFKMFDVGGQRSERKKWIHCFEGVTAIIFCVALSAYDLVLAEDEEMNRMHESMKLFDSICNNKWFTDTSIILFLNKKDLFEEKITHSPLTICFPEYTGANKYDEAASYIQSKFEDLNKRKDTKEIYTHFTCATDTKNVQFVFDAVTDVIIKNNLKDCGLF
DnaJ homolog subfamily A member 1, sequence (P31689 whole entry): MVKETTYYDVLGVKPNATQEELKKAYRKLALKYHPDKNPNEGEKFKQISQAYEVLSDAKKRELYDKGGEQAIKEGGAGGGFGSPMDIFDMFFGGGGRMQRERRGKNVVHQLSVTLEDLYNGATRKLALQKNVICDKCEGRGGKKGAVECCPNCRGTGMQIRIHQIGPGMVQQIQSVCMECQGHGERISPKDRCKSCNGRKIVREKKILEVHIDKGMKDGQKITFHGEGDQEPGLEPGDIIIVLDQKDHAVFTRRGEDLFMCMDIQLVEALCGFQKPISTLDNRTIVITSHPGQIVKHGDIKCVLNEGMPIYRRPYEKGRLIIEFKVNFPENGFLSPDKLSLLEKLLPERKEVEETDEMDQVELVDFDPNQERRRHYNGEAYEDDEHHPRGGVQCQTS
Citron Rho-interacting kinase, sequence (O14578 whole entry): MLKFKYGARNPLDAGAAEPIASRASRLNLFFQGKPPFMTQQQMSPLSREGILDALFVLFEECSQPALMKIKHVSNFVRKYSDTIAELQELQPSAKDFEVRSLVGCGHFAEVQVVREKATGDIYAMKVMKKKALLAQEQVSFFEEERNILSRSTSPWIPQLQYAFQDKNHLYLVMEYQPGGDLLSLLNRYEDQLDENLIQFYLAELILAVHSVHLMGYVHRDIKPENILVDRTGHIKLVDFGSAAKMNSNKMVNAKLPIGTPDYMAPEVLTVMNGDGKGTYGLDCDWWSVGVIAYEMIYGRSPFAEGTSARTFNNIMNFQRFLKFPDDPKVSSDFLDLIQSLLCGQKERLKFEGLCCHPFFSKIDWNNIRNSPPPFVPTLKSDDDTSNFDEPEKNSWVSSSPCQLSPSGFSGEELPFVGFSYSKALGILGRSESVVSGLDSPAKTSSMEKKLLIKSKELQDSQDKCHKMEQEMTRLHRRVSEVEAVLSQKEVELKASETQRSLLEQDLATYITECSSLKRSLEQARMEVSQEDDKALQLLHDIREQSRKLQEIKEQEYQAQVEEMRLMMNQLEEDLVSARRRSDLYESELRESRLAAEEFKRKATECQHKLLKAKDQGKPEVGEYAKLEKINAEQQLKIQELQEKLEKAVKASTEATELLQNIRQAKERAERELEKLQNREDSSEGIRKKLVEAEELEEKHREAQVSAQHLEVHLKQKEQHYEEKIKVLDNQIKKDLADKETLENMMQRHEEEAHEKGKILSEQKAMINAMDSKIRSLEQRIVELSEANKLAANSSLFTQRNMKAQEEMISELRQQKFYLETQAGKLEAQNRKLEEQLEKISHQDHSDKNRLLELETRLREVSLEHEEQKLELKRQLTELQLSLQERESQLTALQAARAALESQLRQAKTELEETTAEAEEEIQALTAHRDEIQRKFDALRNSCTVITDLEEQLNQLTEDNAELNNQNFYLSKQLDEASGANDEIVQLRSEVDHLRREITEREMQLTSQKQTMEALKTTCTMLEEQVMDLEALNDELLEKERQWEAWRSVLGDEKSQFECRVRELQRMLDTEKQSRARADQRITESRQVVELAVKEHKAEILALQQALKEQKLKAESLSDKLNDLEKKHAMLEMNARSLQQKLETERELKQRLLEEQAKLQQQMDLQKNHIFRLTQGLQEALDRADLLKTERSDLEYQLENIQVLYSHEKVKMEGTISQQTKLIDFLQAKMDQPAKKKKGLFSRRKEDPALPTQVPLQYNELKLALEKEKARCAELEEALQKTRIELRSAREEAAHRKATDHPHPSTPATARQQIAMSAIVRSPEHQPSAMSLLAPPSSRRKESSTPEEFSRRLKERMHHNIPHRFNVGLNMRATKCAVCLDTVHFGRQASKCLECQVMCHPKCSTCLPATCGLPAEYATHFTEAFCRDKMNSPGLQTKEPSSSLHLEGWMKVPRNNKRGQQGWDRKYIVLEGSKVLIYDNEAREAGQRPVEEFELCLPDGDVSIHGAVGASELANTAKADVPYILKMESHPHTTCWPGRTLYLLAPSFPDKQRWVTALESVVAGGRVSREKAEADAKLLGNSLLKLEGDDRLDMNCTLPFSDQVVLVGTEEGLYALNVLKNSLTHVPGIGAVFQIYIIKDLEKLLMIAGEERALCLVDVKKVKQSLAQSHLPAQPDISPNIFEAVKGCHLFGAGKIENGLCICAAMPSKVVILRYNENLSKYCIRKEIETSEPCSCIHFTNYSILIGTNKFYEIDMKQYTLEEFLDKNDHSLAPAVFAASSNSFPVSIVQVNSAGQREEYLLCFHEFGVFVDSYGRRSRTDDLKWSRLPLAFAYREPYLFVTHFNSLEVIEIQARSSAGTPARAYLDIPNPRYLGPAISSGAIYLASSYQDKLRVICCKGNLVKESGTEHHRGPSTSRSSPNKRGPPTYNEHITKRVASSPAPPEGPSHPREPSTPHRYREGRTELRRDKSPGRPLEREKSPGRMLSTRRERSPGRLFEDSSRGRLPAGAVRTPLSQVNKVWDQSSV
Ephrin type-A receptor 2, sequence (P29317 whole entry): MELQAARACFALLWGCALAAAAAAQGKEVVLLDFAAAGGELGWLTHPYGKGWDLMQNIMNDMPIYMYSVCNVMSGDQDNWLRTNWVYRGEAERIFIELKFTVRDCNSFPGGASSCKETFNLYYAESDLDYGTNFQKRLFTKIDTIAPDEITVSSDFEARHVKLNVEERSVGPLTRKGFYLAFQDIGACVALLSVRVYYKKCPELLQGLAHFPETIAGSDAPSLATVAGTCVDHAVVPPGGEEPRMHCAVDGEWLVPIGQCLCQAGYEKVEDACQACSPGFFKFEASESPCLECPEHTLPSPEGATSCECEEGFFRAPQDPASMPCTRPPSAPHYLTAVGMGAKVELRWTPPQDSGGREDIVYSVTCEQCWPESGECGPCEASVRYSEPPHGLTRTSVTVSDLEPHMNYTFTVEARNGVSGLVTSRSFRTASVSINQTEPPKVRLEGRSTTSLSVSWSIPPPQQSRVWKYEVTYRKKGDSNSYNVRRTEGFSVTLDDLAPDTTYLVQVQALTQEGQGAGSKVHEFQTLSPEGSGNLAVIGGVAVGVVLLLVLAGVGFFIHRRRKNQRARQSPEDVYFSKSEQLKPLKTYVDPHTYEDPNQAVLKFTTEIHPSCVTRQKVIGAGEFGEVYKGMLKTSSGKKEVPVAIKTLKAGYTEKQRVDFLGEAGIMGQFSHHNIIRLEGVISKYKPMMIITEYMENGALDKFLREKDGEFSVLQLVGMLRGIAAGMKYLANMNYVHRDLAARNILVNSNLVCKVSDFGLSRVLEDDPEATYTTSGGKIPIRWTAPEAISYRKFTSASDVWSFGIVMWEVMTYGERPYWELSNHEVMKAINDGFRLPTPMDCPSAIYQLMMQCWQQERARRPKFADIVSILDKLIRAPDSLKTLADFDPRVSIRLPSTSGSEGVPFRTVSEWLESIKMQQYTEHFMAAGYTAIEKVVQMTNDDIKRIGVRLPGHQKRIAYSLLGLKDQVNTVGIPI
LIM domain kinase 2, sequence (P53671 whole entry, the tested form may be a part): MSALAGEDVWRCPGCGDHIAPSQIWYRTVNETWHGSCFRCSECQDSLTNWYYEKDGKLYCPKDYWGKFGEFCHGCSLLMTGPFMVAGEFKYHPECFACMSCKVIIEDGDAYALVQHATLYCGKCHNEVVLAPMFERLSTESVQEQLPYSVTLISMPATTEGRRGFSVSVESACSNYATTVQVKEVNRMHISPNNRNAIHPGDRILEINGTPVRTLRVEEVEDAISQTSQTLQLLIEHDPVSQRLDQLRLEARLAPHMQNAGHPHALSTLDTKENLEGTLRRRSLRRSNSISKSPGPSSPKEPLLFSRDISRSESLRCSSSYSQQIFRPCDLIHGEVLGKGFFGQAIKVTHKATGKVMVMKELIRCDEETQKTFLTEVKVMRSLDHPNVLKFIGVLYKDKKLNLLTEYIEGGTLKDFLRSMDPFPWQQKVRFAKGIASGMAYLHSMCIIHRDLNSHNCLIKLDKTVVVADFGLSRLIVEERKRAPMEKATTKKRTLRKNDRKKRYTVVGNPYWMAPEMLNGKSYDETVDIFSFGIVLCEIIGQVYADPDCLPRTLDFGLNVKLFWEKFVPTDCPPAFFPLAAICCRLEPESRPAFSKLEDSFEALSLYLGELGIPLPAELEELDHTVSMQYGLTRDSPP

Compound | Kd [1] | Kd [2] | Kd [3] | Kd [4] | Kd [5] | Kd (Ephrin type-A receptor 2) | Kd [6] | Kd (LIM domain kinase 2) | Kd [7] | Kd (Actin-related protein 2) | Kd (Obg-like ATPase 1)
C[C@@H](Oc1cc(C(=O)Nc2ccc(C(=O)N3CCN(C)CC3)cc2)nnc1N)c1c(Cl)ccc(F)c1Cl | > 30 µM (inactive) | > 30 µM (inactive) | > 30 µM (inactive) | > 30 µM (inactive) | > 30 µM (inactive) | > 30 µM (inactive) | > 30 µM (inactive) | > 30 µM (inactive) | > 30 µM (inactive) | – | –
C[C@H]1CNCCCN1S(=O)(=O)c1cccc2cncc(F)c12 | > 30 µM (inactive) | > 30 µM (inactive) | > 30 µM (inactive) | > 30 µM (inactive) | > 30 µM (inactive) | > 30 µM (inactive) | > 30 µM (inactive) | > 30 µM (inactive) | > 30 µM (inactive) | > 30 µM (inactive) | –
Nc1ncnc2c1c(-c1cccc(OCc3ccccc3)c1)cn2[C@H]1C[C@@H](CN2CCC2)C1 [AEW-541] | > 30 µM (inactive) | > 30 µM (inactive) | > 30 µM (inactive) | > 30 µM (inactive) | – | > 30 µM (inactive) | > 30 µM (inactive) | > 30 µM (inactive) | > 30 µM (inactive) | > 30 µM (inactive) | –
Cc1cc(Nc2ncc(Cl)c(Nc3ccccc3S(=O)(=O)C(C)C)n2)c(OC(C)C)cc1C1CCNCC1 [CERITINIB] | > 30 µM (inactive) | > 30 µM (inactive) | > 30 µM (inactive) | > 30 µM (inactive) | > 30 µM (inactive) | > 30 µM (inactive) | > 30 µM (inactive) | > 30 µM (inactive) | > 30 µM (inactive) | > 30 µM (inactive) | –
CCS(=O)(=O)N1CCN(c2ccc(Nc3ncc(C(N)=O)c(NC4CC4)n3)cc2)CC1 [Cerdulatinib Hydrochloride] | > 30 µM (inactive) | > 30 µM (inactive) | > 30 µM (inactive) | > 30 µM (inactive) | – | > 30 µM (inactive) | > 30 µM (inactive) | > 30 µM (inactive) | > 30 µM (inactive) | – | –
O=C(Nc1cc(C(F)(F)F)cc(C(F)(F)F)c1)c1cc(Cl)ccc1O [IMD-0354] | > 30 µM (inactive) | > 30 µM (inactive) | > 30 µM (inactive) | > 30 µM (inactive) | – | > 30 µM (inactive) | > 30 µM (inactive) | > 30 µM (inactive) | > 30 µM (inactive) | > 30 µM (inactive) | –
CNC(=O)c1nn(C)c2c1C(C)(C)Cc1cnc(Nc3ccc(N4CCN(C)CC4)cc3)nc1-2 [MILCICLIB] | > 30 µM (inactive) | 19.6 µM (active) | > 30 µM (inactive) | > 30 µM (inactive) | – | 0.661 µM (active) | > 30 µM (inactive) | > 30 µM (inactive) | > 30 µM (inactive) | – | –
FC(F)(F)c1ccc(/C=C/c2nc(COc3ccc(CCCCn4ccnn4)cc3)co2)cc1 [MUBRITINIB] | > 30 µM (inactive) | > 30 µM (inactive) | > 30 µM (inactive) | > 30 µM (inactive) | – | > 30 µM (inactive) | > 30 µM (inactive) | > 30 µM (inactive) | > 30 µM (inactive) | > 30 µM (inactive) | –
Cc1[nH]c(/C=C2\C(=O)Nc3ccccc32)c(C)c1CCC(=O)O [ORANTINIB] | > 30 µM (inactive) | > 30 µM (inactive) | > 30 µM (inactive) | > 30 µM (inactive) | – | – | – | > 30 µM (inactive) | > 30 µM (inactive) | > 30 µM (inactive) | –
NC(=O)c1c(OCc2c(F)cc(Br)cc2F)nsc1NC(=O)NCCCCN1CCCC1 [OSI-632] | > 30 µM (inactive) | > 30 µM (inactive) | > 30 µM (inactive) | > 30 µM (inactive) | > 30 µM (inactive) | – | > 30 µM (inactive) | > 30 µM (inactive) | > 30 µM (inactive) | > 30 µM (inactive) | –
CO[C@H]1C[C@@H]2CC[C@@H](C)[C@@](O)(O2)C(=O)C(=O)N2CCCC[C@H]2C(=O)O[C@H]([C@H](C)C[C@@H]2CC[C@@H](OP(C)(C)=O)[C@H](OC)C2)CC(=O)[C@H](C)/C=C(\C)[C@@H](O)[C@@H](OC)C(=O)[C@H](C)C[C@H](C)/C=C/C=C/C=C/1C [RIDAFOROLIMUS] | > 30 µM (inactive) | > 30 µM (inactive) | > 30 µM (inactive) | > 30 µM (inactive) | > 30 µM (inactive) | > 30 µM (inactive) | – | > 30 µM (inactive) | > 30 µM (inactive) | > 30 µM (inactive) | –
N#CC[C@H](C1CCCC1)n1cc(-c2ncnc3[nH]ccc23)cn1 [RUXOLITINIB] | > 30 µM (inactive) | – | – | > 30 µM (inactive) | – | – | > 30 µM (inactive) | – | > 30 µM (inactive) | > 30 µM (inactive) | –
CN1CCN(CCOc2cc(OC3CCOCC3)c3c(Nc4c(Cl)ccc5c4OCO5)ncnc3c2)CC1 [SARACATINIB] | > 30 µM (inactive) | > 30 µM (inactive) | > 30 µM (inactive) | > 30 µM (inactive) | – | 0.729 µM (active) | – | > 30 µM (inactive) | > 30 µM (inactive) | > 30 µM (inactive) | –
Cn1cc(-c2cnn3c(N)c(Br)c([C@@H]4CCCNC4)nc23)cn1 [SCH-900776] | > 30 µM (inactive) | > 30 µM (inactive) | > 30 µM (inactive) | – | > 30 µM (inactive) | > 30 µM (inactive) | > 30 µM (inactive) | > 30 µM (inactive) | > 30 µM (inactive) | > 30 µM (inactive) | > 30 µM (inactive)
CO[C@H]1C[C@@H]2CC[C@@H](C)[C@@](O)(O2)C(=O)C(=O)N2CCCC[C@H]2C(=O)O[C@H]([C@H](C)C[C@@H]2CC[C@@H](O)[C@H](OC)C2)CC(=O)[C@H](C)/C=C(\C)[C@@H](O)[C@@H](OC)C(=O)[C@H](C)C[C@H](C)/C=C/C=C/C=C/1C [SIROLIMUS] | > 30 µM (inactive) | > 30 µM (inactive) | > 30 µM (inactive) | – | > 30 µM (inactive) | > 30 µM (inactive) | > 30 µM (inactive) | > 30 µM (inactive) | > 30 µM (inactive) | > 30 µM (inactive) | > 30 µM (inactive)
O=C(Cc1ccc(-c2ccc(OCCN3CCOCC3)cc2)cn1)NCc1ccccc1 [TIRBANIBULIN] | > 30 µM (inactive) | > 30 µM (inactive) | > 30 µM (inactive) | – | > 30 µM (inactive) | > 30 µM (inactive) | > 30 µM (inactive) | > 30 µM (inactive) | > 30 µM (inactive) | > 30 µM (inactive) | > 30 µM (inactive)
C[C@@H](N)c1ccc(C(=O)Nc2ccnc3[nH]ccc23)cc1 [Y-39983] | > 30 µM (inactive) | > 30 µM (inactive) | 0.033 µM (active) | – | > 30 µM (inactive) | > 30 µM (inactive) | > 30 µM (inactive) | > 30 µM (inactive) | > 30 µM (inactive) | > 30 µM (inactive) | > 30 µM (inactive)
